Data from ChEMBL document CHEMBL5625215, “Antiproliferative activity of meso-substituted BODIPY photocages: Effect of electrophiles vs singlet oxygen” (Eur J Med Chem, 2023).
Activity calls are given as the source filed them. The calls are words filed in the database; no cut-off is given here.

Experiments:
[1] = Fluorescence property of compound in CH3OH assessed as fluorescence quantum yield; format: physicochemical
[2] = Drug uptake in HEK293T cells by fluorescence microscopic analysis; format: ADME, cell-based; details: human, hek-293t
HCT-116 [3] = test: Antiproliferative activity against human HCT-116 cells assessed as inhibition of cell growth incubated for 72 hrs under dark condition by MTT assay; format: functional, cell-based; details: HCT-116, 72 h
HEK-293T [4] = test: Induction of apoptosis in HEK293T cells assessed as cell death irradiated with visible light by Hoechst 33342 staining based confocal microscopic analysis; format: toxicity; details: human
[5] = Drug localization in cytoplasm of human NCI-H460 cells incubated for 30 mins by Hoechst 33342 staining based confocal microscopic analysis; format: ADME, subcellular; details: nci-h460, 0.5 h
MCF7 [6] = test: Antiproliferative activity against human MCF7 cells assessed as inhibition of cell growth incubated for 72 hrs under photoirradiation with 6 cool white lamps for 15 mins at 4,28 and 52 hrs after compound addition by MTT assay; format: functional, cell-based; details: MCF7, light or radiation study
[7] = Fluorescence property of compound in CH3CN assessed as fluorescence quantum yield by spectrofluorometric analysis; format: physicochemical
NCI-H460 [8] = test: Induction of cell death in human NCI-H460 cells assessed as cell shrinkage preincubated for 30 mins followed by light irradiation for 15 to 30 mins by Hoechst 33342 staining based confocal microscopic analysis; format: functional; details: time 45-60 min
[9] = Drug localization in golgi body of human NCI-H460 cells incubated for 30 mins by Hoechst 33342 staining based confocal microscopic analysis; format: ADME, subcellular; details: nci-h460, 0.5 h
MCF7 [10] = test: Antiproliferative activity against human MCF7 cells assessed as inhibition of cell growth incubated for 72 hrs under dark condition by MTT assay; format: functional, cell-based; details: MCF7, 72 h
NCI-H460 [11] = test: Induction of cell death in human NCI-H460 cells assessed as membrane blebbing preincubated for 30 mins followed by light irradiation for 15 to 30 mins by Hoechst 33342 staining based confocal microscopic analysis; format: functional; details: time 45-60 min
NCI-H460 [12] = test: Induction of cell death in human NCI-H460 cells assessed as dye bleaching preincubated for 30 mins followed by light irradiation for 15 to 30 mins by Hoechst 33342 staining based confocal microscopic analysis; format: functional; details: time 45-60 min
[13] = Drug localization in nuclear membrane of human NCI-H460 cells incubated for 30 mins by Hoechst 33342 staining based confocal microscopic analysis; format: ADME, cell membranes; details: nci-h460, 0.5 h
[14] = Drug localization in endoplasmic reticulum of human NCI-H460 cells incubated for 30 mins by Hoechst 33342 staining based confocal microscopic analysis; format: ADME, subcellular; details: nci-h460, 0.5 h
NCI-H460 [15] = test: Antiproliferative activity against human NCI-H460 cells assessed as inhibition of cell growth incubated for 72 hrs under dark condition by MTT assay; format: functional, cell-based; details: NCI-H460, 72 h
[16] = Absorption property of compound in CH3CN assessed as maximal molar absorption coefficient by UV-vis spectrophotometer; format: physicochemical
NCI-H460 [17] = test: Antiproliferative activity against human NCI-H460 cells assessed as inhibition of cell growth incubated for 72 hrs under photoirradiation with 6 cool white lamps for 15 mins at 4,28 and 52 hrs after compound addition by MTT assay; format: functional, cell-based; details: NCI-H460, light or radiation study
NCI-H460 [18] = test: Induction of cell death in human NCI-H460 cells assessed as shrinkage of nuclear volume preincubated for 30 mins followed by light irradiation for 15 to 30 mins by Hoechst 33342 staining based confocal microscopic analysis; format: functional; details: time 45-60 min
HEK-293T [19] = test: Induction of apoptosis in HEK293T cells assessed as dye bleaching irradiated with visible light by Hoechst 33342 staining based confocal microscopic analysis; format: toxicity, cell-based; details: human
[20] = Absorption property of compound in CH3CN assessed as maximal wavelength by UV-vis spectrophotometer; format: physicochemical
[21] = Drug localization in lipid droplets of human NCI-H460 cells incubated for 30 mins by Hoechst 33342 staining based confocal microscopic analysis; format: ADME, subcellular, Lipid droplet; details: nci-h460, 0.5 h
HCT-116 [22] = test: Antiproliferative activity against human HCT-116 cells assessed as inhibition of cell growth incubated for 72 hrs under photoirradiation with 6 cool white lamps for 15 mins at 4,28 and 52 hrs after compound addition by MTT assay; format: functional, cell-based; details: HCT-116, light or radiation study
[23] = Emission property of compound in CH3CN assessed as maximal wavelength by […]; format: physicochemical
NCI-H460 [24] = test: Induction of cell death in human NCI-H460 cells assessed as shrinkage of nuclear volume at 1 uM preincubated for 30 mins followed by light irradiation for 15 to 30 mins by Hoechst 33342 staining based confocal microscopic analysis; format: functional; details: time 45-60 min
[25] = Cytotoxicity against human HaCaT cells assessed as inhibition of cell growth incubated for 72 hrs under dark condition by MTT assay; format: toxicity, cell-based
[26] = Drug localization in lipid droplets of human NCI-H460 cells at 10 uM incubated for 30 mins by Hoechst 33342 staining based confocal microscopic analysis; format: ADME, subcellular, Lipid droplet; details: nci-h460, 0.5 h
[27] = Cytotoxicity against human HaCaT cells assessed as inhibition of cell growth incubated for 72 hrs under photoirradiation with 6 cool white lamps for 15 mins at 4,28 and 52 hrs after compound addition by MTT assay; format: toxicity, cell-based
[28] = Drug localization in golgi body of human NCI-H460 cells at 10 uM incubated for 30 mins by Hoechst 33342 staining based confocal microscopic analysis; format: ADME, subcellular; details: nci-h460, 0.5 h
[29] = Drug localization in cytoplasm of human NCI-H460 cells at 10 uM incubated for 30 mins by Hoechst 33342 staining based confocal microscopic analysis; format: ADME, subcellular; details: nci-h460, 0.5 h
[30] = Drug localization in endoplasmic reticulum of human NCI-H460 cells at 10 uM incubated for 30 mins by Hoechst 33342 staining based confocal microscopic analysis; format: ADME, subcellular; details: nci-h460, 0.5 h
HCT-116 [31] = test: Induction of ROS generation in human HCT-116 cells at 5 uM incubated for 1 hrs under dark condition by DCFH-DA staining based fluorescence analysis; format: functional, cell-based
HCT-116 [32] = test: Induction of ROS generation in human HCT-116 cells assessed as increase in oxidative stress at 5 uM preincubated with compound for 1 hrs followed by photoirradiation with 6 cool white lamps by DCFH-DA staining based fluorescence analysis; format: functional, cell-based
NCI-H460 [33] = test: Induction of cell death in human NCI-H460 cells assessed as dye bleaching at 1 uM preincubated for 30 mins followed by light irradiation for 15 to 30 mins by Hoechst 33342 staining based confocal microscopic analysis; format: functional; details: time 45-60 min
NCI-H460 [34] = test: Induction of cell death in human NCI-H460 cells assessed as cell shrinkage at 1 uM preincubated for 30 mins followed by light irradiation for 15 to 30 mins by Hoechst 33342 staining based confocal microscopic analysis; format: functional; details: time 45-60 min
[35] = Drug localization in nuclear membrane of human NCI-H460 cells at 10 uM incubated for 30 mins by Hoechst 33342 staining based confocal microscopic analysis; format: ADME, cell membranes; details: nci-h460, 0.5 h
NCI-H460 [36] = test: Induction of cell death in human NCI-H460 cells assessed as membrane blebbing at 1 uM preincubated for 30 mins followed by light irradiation for 15 to 30 mins by Hoechst 33342 staining based confocal microscopic analysis; format: functional; details: time 45-60 min
[37] = Cytotoxicity against HEK293T cells assessed as inhibition of cell growth incubated for 72 hrs under dark condition by MTT assay; format: toxicity, cell-based, HEK-293T; details: human
[38] = Cytotoxicity against HEK293T cells assessed as inhibition of cell growth incubated for 72 hrs under photoirradiation with 6 cool white lamps for 15 mins at 4,28 and 52 hrs after compound addition by MTT assay; format: toxicity, cell-based, HEK-293T; details: human
[39] = Induction of singlet oxygen production in CH3CN assessed as decrease in fluorescence intensity at 455 nm under photoirradiation with visible light and measured after 30 sec by DPBF based assay relative to control; format: functional; design: scale not given: the % may be the effect or the level left
[40] = Induction of singlet oxygen production in CH3CN assessed as singlet oxygen quantum yield; format: functional
[41] = Induction of singlet oxygen production in CH3CN assessed as decrease in fluorescence intensity at 455 nm under photoirradiation with visible light and measured after 45 sec by DPBF based assay relative to control; format: functional; design: scale not given: the % may be the effect or the level left
[42] = Induction of singlet oxygen production in CH3CN assessed as decrease in fluorescence intensity at 455 nm under photoirradiation with visible light and measured after 15 sec by DPBF based assay relative to control; format: functional; design: scale not given: the % may be the effect or the level left
[43] = Induction of singlet oxygen production in CH3CN assessed as decrease in fluorescence intensity at 455 nm under photoirradiation with visible light and measured after 1 min by DPBF based assay relative to control; format: functional; design: scale not given: the % may be the effect or the level left
[44] = Induction of singlet oxygen production in CH3CN assessed as decrease in fluorescence intensity at 450 nm under photoirradiation with visible light and measured after 15 sec by DPBF based assay relative to control; format: functional; design: scale not given: the % may be the effect or the level left
[45] = Induction of singlet oxygen production in CH3CN assessed as decrease in fluorescence intensity at 450 nm under photoirradiation with visible light and measured after 30 sec by DPBF based assay relative to control; format: functional; design: scale not given: the % may be the effect or the level left
[46] = Induction of singlet oxygen production in CH3CN assessed as decrease in fluorescence intensity at 450 nm under photoirradiation with visible light and measured after 45 sec by DPBF based assay relative to control; format: functional; design: scale not given: the % may be the effect or the level left
[47] = Induction of singlet oxygen production in CH3CN assessed as singlet oxygen quantum yield at 450 nm under photoirradiation with visible light and measured after 15 to 60 sec by DPBF based assay; format: functional; details: time 15-60 sec

Compound | Drug uptake [2] | IC50 (HCT-116 [3]) | Activity (HEK-293T [4]) | Drug uptake [5] | IC50 (MCF7 [6]) | Activity [7] | Activity (NCI-H460 [8]) | Drug uptake [9] | IC50 (MCF7 [10]) | Activity (NCI-H460 [11]) | Activity (NCI-H460 [12]) | Drug uptake [13] | Drug uptake [14] | IC50 (NCI-H460 [15]) | Activity [16] | IC50 (NCI-H460 [17]) | Activity (HEK-293T [19]) | Activity [20] | IC50 (HCT-116 [22]) | Activity [23] | further results
CCN(CC)c1ccc2c(-c3ccccc3C(=O)O)c3ccc(=[N+](CC)CC)cc-3oc2c1.[Cl-] [RHODAMINE] |  |  |  |  |  |  |  |  |  |  |  |  |  |  |  |  |  |  |  |  | Activity [1]: 0.66
CC(=O)OCc1ccccc1OCC1=C2C(C)=C(Br)C(C)=[N+]2[B-](C)(C)n2c(C)c(Br)c(C)c21 | Active | 25000 nM | Toxic | Active | 170 nM | 0.043 | Active | Active | 18000 nM | Active | Active | Active | Active | 33000 nM | 37724 M⁻¹ cm⁻¹ | 190 nM | Toxic | 531 nm | 160 nM | 558 nm | Activity (NCI-H460 [18]): Active; Drug uptake [21]: Active
CC1=CC(C)=[N+]2C1=C(CO)c1c(C)cc(C)n1[B-]2(C)C | Active | > 100000 nM | Toxic |  | 150 nM | 0.32 |  |  | > 100000 nM |  |  |  |  | > 100000 nM | 88894 M⁻¹ cm⁻¹ | 170 nM | Toxic | 505 nm | 170 nM | 517 nm | Activity (NCI-H460 [24]): Active; IC50 at 72 h [25]: 68000 nM; Drug uptake [26]: Active; IC50 at 72 h [27]: 300 nM; Drug uptake [28]: Active; Drug uptake [29]: Active; Drug uptake [30]: Active; Activity (HCT-116 [31]): inactive; Activity (HCT-116 [32]): Active; Activity (NCI-H460 [33]): Active; Activity (NCI-H460 [34]): Active; Drug uptake [35]: Active; Activity (NCI-H460 [36]): Active; IC50 at 72 h [37]: 38000 nM; IC50 at 72 h [38]: 300 nM
C1=Cc2nc1c(-c1ccccc1)c1ccc([nH]1)c(-c1ccccc1)c1nc(c(-c3ccccc3)c3ccc([nH]3)c2-c2ccccc2)C=C1 |  |  |  |  |  |  |  |  |  |  |  |  |  |  |  |  |  |  |  |  | Activity [39]: 63%; Activity [40]: 0.5; Activity [41]: 84.2%; Activity [42]: 43.3%; Activity [43]: 95.1%
COc1cccc(COC(C)=O)c1OCC1=C2C(C)=C(Br)C(C)=[N+]2[B-](C)(C)n2c(C)c(Br)c(C)c21 | Active | ≥ 100000 nM | Toxic | Active | 150 nM | 0.034 | Active | Active | ≥ 100000 nM | Active | Active | Active | Active | > 100000 nM | 59622 M⁻¹ cm⁻¹ | 230 nM | Toxic | 530 nm | 190 nM | 559 nm | IC50 at 72 h [25]: > 100000 nM; Activity [44]: 63%; Activity [45]: 91.8%; IC50 at 72 h [27]: 300 nM; Activity [46]: 99.9%; Activity (NCI-H460 [18]): Active; Drug uptake [21]: Active; Activity [47]: 0.73; IC50 at 72 h [37]: ≥ 100000 nM; IC50 at 72 h [38]: 300 nM
